# Measured values published in patent publication US12006321B2, “Substituted pyrazolo[1,5-a]pyrimidines as apelin receptor agonists” (Sanford Burnham Prebys Medical Discovery Institute, priority 2017, dated 2024).
# pEC50: −log10 of the molar value.
# Biological target: T1, human apelin receptor (APJ, APLNR) (Homo sapiens, UniProt P35414)
# T1 construct: host or cells: Chinese hamster ovary (CHO) cells, stably integrated receptor
# T1 sequence (P35414 1-380): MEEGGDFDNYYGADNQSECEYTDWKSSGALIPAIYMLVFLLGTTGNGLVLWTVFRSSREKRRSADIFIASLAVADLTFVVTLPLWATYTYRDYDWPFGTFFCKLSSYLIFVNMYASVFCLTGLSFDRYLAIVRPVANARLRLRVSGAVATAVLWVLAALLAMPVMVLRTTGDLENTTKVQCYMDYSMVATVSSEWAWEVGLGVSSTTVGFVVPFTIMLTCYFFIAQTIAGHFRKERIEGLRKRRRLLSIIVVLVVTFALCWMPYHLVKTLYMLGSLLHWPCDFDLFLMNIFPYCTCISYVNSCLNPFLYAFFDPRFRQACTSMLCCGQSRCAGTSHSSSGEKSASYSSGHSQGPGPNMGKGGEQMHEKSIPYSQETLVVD
# Test: cell-based cAMP assay (TR-FRET) in Chinese hamster ovary cells expressing the apelin receptor
# Settings: EC50 = 50% of control (apelin-13, 1 nM) response; cAMP in CHO cells, 0.5 h incubation; read-out: Potency Category
# Procedure: This example illustrates the biological activity of various compounds tested against the APJ receptor.
# Commercially available cell lines were used to screen chemical libraries to identify compounds that potently and selectively activated the human apelin receptor. The assays disclosed herein were performed using cell lines from DiscoveX, Inc.
# Biological activity was determined to the cell-based assay. This assay detects activation of the receptor by reporting on intracellular cyclic adenosine monophosphate (cAMP) level. Chinese hamster ovary cells engineered to express the stably integrated human appellant receptor (APJ, AGTRL-one, APLNR), pleaded into the wells of the microtiter plate. Cells were stimulated with […] to increase intracellular cyclic AMP. Immediately following, compounds were added to the range of final concentrations 0.0-100 μM, in DMSO (not to exceed a final DMSO concentration greater than 1% v/v), and allowed to incubate with the cells for 0.5 h. At the end of the incubation, cells were lysed to stop APJ signaling and cAMP was quantified using a commercially available competitive immunoassay kit that applies homogenous time-resolved florescence energy transfer (TR-FRET). The assay is based on the competition between a europium (Eu) chelate-labeled cAMP donor tracer and cellular cAMP for binding sites on a cAMP-specific monoclonal antibody labeled with an acceptor fluorophore. When antibodies are bound to the cAMP tracer light emissions at 320 nm stimulate the energy transfer from the donor to the acceptor, which in turn emits light at 665 nm. In the presence of competitive unlabeled cAMP (derived from the activity of the receptor or forskolin-stimulated production of cAMP), the labelled cAMP tracer is dissociated from the cAMP antibody, resulting in a loss of FRET signal. The amount of light emitted by the FRET is inversely proportional to the cAMP generated by the cell/receptor system. Potency and efficacy at APJ are reported in reference to the canonical APJ receptor agonist apelin-13 when tested at 1 nM.
# Compound competency is reported as the effective concentration required to effect 50% (EC 50) of the control (apelin—13, 1 nM) response in micromole are (μM) units. Compound efficacy (% response) is reported as a percentage of the maximal apein-13 response at 1 nM (control). Potencies were calculated by fitting a four-point logistic curve to concentration response consisting of at least 10 discrete data points spanning effective range of the compounds in the cell-based assay that measures cAMP. In Table 1, the Potency Categories are A, B, C and D. Category A EC50>500 nM; Category B 200<EC50<500 nM; Category C 100<EC50<200 nM; Category D<100 nM.
row,pEC50,Structure (SMILES)
1,< 6.30,"CCc1cc(C(=O)O)nc2c(-c3ccccc3)c(C)nn12 [Compound 34, 7-ethyl-2-methyl-3-phenyl-8-hydropyrazolo[1,5-a]pyrimidine-5-carboxylic acid]"
2,< 6.30,"CCCc1cc(C(=O)OCC)nc2c(-c3ccccc3)c(C)nn12 [Compound 35, ethyl 2-methyl-3-phenyl-7-propyl-8-hydropyrazolo[1,5-a]pyrimidine-5-carboxylate]"
3,< 6.30,"CCCc1cc(C(=O)O)nc2c(-c3ccccc3)c(C)nn12 [Compound 36, 2-methyl-3-phenyl-7-propyl-8-hydropyrazolo[1,5-a]pyrimidine-5-carboxylic acid]"
4,< 6.30,"COC(=O)c1nc2c(-c3ccccc3)c(C)nn2c(C(C)C)c1C [Compound 37, methyl 2,6-dimethyl-7-(methylethyl)-3-phenyl-8-hydropyrazolo[1,5-a]pyrimidine-5-carboxylate]"
5,< 6.30,"Cc1nn2c(C(C)C)c(C)c(C(=O)O)nc2c1-c1ccccc1 [Compound 38, 2,6-dimethyl-7-(methylethyl)-3-phenyl-8-hydropyrazolo[1,5-a]pyrimidine-5-carboxylic acid]"
6,< 6.30,"CCOC(=O)c1cc(C(C)C)n2nc(C)c(-c3c(C)cccc3C)c2n1 [Compound 39, ethyl 3-(2,6-dimethylphenyl)-2-methyl-7-(methylethyl)-8-hydropyrazolo[1,5-a]pyrimidine-5-carboxylate]"
7,< 6.30,"CCOC(=O)c1cc(C(C)C)n2nc(C)c(-c3c(OC)cccc3OC)c2n1 [Compound 40, ethyl 3-(2,6-dimethoxyphenyl)-2-methyl-7-(methylethyl)-8-hydropyrazolo[1,5-a]pyrimidine-5-carboxylate]"
8,> 7.00,"Cc1cccc(C)c1-c1c(C)nn2c(C(C)C)cc(C(=O)O)nc12 [Compound 41, 3-(2,6-dimethylphenyl)-2-methyl-7-(methylethyl)-8-hydropyrazolo[1,5-a]pyrimidine-5-carboxylic acid]"
9,< 6.30,"COc1cccc(OC)c1-c1c(C)nn2c(C(C)C)cc(C(=O)O)nc12 [Compound 42, 3-(2,6-dimethoxyphenyl)-2-methyl-7-(methylethyl)-8-hydropyrazolo[1,5-a]pyrimidine-5-carboxylic acid]"
10,< 6.30,"CC(C)c1cc(C(=O)O)nc2c3c(nn12)CCCC3 [Compound 43, 4-(methylethyl)-5,7,8,9,10-pentahydro-5H-pyrimidino[1,2-b]indazole-2-carboxylic acid]"
11,< 6.30,"CCOC(=O)c1cc(C(C)C)n2nc(C)c(-c3ccc(C)cc3C)c2n1 [Compound 44, ethyl 3-(2,4-dimethylphenyl)-2-methyl-7-(methylethyl)-8-hydropyrazolo[1,5-a]pyrimidine-5-carboxylate]"
12,< 6.30,"Cc1ccc(-c2c(C)nn3c(C(C)C)cc(C(=O)O)nc23)c(C)c1 [Compound 45, 3-(2,4-dimethylphenyl)-2-methyl-7-(methylethyl)-8-hydropyrazolo[1,5-a]pyrimidine-5-carboxylic acid]"
13,< 6.30,"CCOC(=O)c1cc(C(C)C)n2nc(C)c(-c3c(C)cc(OC)cc3C)c2n1 [Compound 46, ethyl 3-(4-methoxy-2,6-dimethylphenyl)-2-methyl-7-(methylethyl)-8-hydropyrazolo[1,5-a]pyrimidine-5-carboxylate]"
14,< 6.30,"CCOC(=O)c1cc(C(C)C)n2nc(C)c(-c3c(C)cc(F)cc3C)c2n1 [Compound 47, ethyl 3-(4-fluoro-2,6-dimethylphenyl)-2-methyl-7-(methylethyl)-8-hydropyrazolo[1,5-a]pyrimidine-5-carboxylate]"
15,< 6.30,"COc1cc(C)c(-c2c(C)nn3c(C(C)C)cc(C(=O)O)nc23)c(C)c1 [Compound 48, 3-(4-methoxy-2,6-dimethylphenyl)-2-methyl-7-(methylethyl)-8-hydropyrazolo[1,5-a]pyrimidine-5-carboxylic acid]"
16,< 6.30,"CCOC(=O)c1cc(C(C)C)n2nc(C)c(-c3c(C)cccc3F)c2n1 [Compound 49, ethyl 3-(6-fluoro-2-methylphenyl)-2-methyl-7-(methylethyl)-8-hydropyrazolo[1,5-a]pyrimidine-5-carboxylate]"

row,pEC50,Structure (SMILES)
1,6.70 to 7.00,"Cc1cc(F)cc(C)c1-c1c(C)nn2c(C(C)C)cc(C(=O)O)nc12 [Compound 50, 3-(4-fluoro-2,6-dimethylphenyl)-2-methyl-7-(methylethyl)-8-hydropyrazolo[1,5-a]pyrimidine-5-carboxylic acid]"
2,6.30 to 6.70,"Cc1cccc(F)c1-c1c(C)nn2c(C(C)C)cc(C(=O)O)nc12 [Compound 51, 3-(6-fluoro-2-methylphenyl)-2-methyl-7-(methylethyl)-8-hydropyrazolo[1,5-a]pyrimidine-5-carboxylic acid]"
3,< 6.30,"CCOC(=O)c1cc(C(C)C)n2ncc(-c3c(C)cccc3C)c2n1 [Compound 52, ethyl 3-(2,6-dimethylphenyl)-7-(methylethyl)-8-hydropyrazolo[1,5-a]pyrimidine-5-carboxylate]"
4,< 6.30,"Cc1cccc(C)c1-c1cnn2c(C(C)C)cc(C(=O)O)nc12 [Compound 53, 3-(2,6-dimethylphenyl)-7-(methylethyl)-8-hydropyrazolo[1,5-a]pyrimidine-5-carboxylic acid]"
5,< 6.30,CCCc1c(C)c(C(=O)OCC)nc2c(-c3c(C)cccc3C)c(C)nn12 [Compound 54]
6,< 6.30,"CCCc1cc(C(=O)O)nc2c(-c3c(C)cccc3C)c(C)nn12 [Compound 55, 3-(2,6-dimethylphenyl)-2-methyl-7-propyl-8-hydropyrazolo[1,5-a]pyrimidine-5-carboxylic acid]"
7,< 6.30,"CCOC(=O)c1cc(C)n2nc(C)c(-c3c(C)cccc3C)c2n1 [Compound 56, ethyl 3-(2,6-dimethylphenyl)-2,7-dimethyl-8-hydropyrazolo[1,5-a]pyrimidine-5-carboxylate]"
8,< 6.30,"Cc1cccc(C)c1-c1c(C)nn2c(C)cc(C(=O)O)nc12 [Compound 57, 3-(2,6-dimethylphenyl)-2,7-dimethyl-8-hydropyrazolo[1,5-a]pyrimidine-5-carboxylic acid]"
9,< 6.30,"CCOC(=O)c1cc(CC)n2nc(C)c(-c3c(C)cccc3C)c2n1 [Compound 58, ethyl 3-(2,6-dimethylphenyl)-7-ethyl-2-methyl-8-hydropyrazolo[1,5-a]pyrimidine-5-carboxylate]"
10,< 6.30,"CCOC(=O)c1cc(C2CC2)n2nc(C)c(-c3c(C)cccc3C)c2n1 [Compound 59, ethyl 3-(2,6-dimethylphenyl)-7-cyclopropyl-2-methyl-8-hydropyrazolo[1,5-a]pyrimidine-5-carboxylate]"
11,< 6.30,"CCOC(=O)c1cc(C2CCC2)n2nc(C)c(-c3c(C)cccc3C)c2n1 [Compound 60, ethyl 3-(2,6-dimethylphenyl)-7-cyclobutyl-2-methyl-8-hydropyrazolo[1,5-a]pyrimidine-5-carboxylate]"
12,6.70 to 7.00,"Cc1cccc(C)c1-c1c(C)nn2c(C3CCC3)cc(C(=O)O)nc12 [Compound 61, 3-(2,6-dimethylphenyl)-7-cyclobutyl-2-methyl-8-hydropyrazolo[1,5-a]pyrimidine-5-carboxylic acid]"
13,< 6.30,"Cc1cccc(C)c1-c1c(C)nn2c(C(C)C)cc(CO)nc12 [Compound 62, [3-(2,6-dimethylphenyl)-2-methyl-7-(methylethyl)-8-hydropyrazolo[1,5-a]pyrimidin-5-yl]methan-1-ol]"
14,< 6.30,"Cc1cccc(C)c1-c1c(C)nn2c(C(C)C)cc(C(O)C(F)(F)F)nc12 (stereo not shown) [Compound 63, 1-[3-(2,6-dimethylphenyl)-2-methyl-7-(methylethyl)(8-hydropyrazolo[1,5-a]pyrimidin-5-yl)]-2,2,2-trifluoroethan-1-ol]"
15,< 6.30,"Cc1cccc(C)c1-c1c(C)nn2c(C(C)C)cc(C(=O)C(F)(F)F)nc12 [Compound 64, 1-[3-(2,6-dimethylphenyl)-2-methyl-7-(methylethyl)(8-hydropyrazolo[1,5-a]pyrimidin-5-yl)]-2,2,2-trifluoroethan-1-one]"
